Values of other authors as cited in PMC9301717 (ACS Omega, 2022).

How the values were obtained:
IDE [1] = tested on: IDE
IDE [2] = tested on: IDE; remark: listed apart in the source

- effect on the enzyme's ability to degrade insulin (IDE [1]): has no effect
Compound: Oc1ccc(/C=C/c2cc(O)cc(O)c2)cc1 [resveratrol]
- effect on IDE's activity toward Aβ42 (IDE [2]): sustains
